Test results taken from article PMC10313671, “Accelerating the prediction and discovery of peptide hydrogels with human-in-the-loop” (Nature Communications, 2023).
Where a SMILES comes first, the peptide text is derived from it.

What was measured:
[1] = Peptide hydrogel formation, vial-inverting method; format: physicochemical; set-up: key to EXP / GELATION: 0: no hydrogel; 1: hydrogel; conditions: for State: ultrasonication, standing 48 h; for State / GELATION: vial-inverting method; for Concentration: concentration at which the state was recorded: lowest of 30, 60, 90, 120 mM that gave a gel, 120 mM for non-gelating peptides; for GELATION: 1 = hydrogel, 0 = no hydrogel
Summary of the method: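 Gelation judged by vial inversion, a non-flowing self-supporting sample counting as hydrogel, after 48 h standing. Peptide in water at 30 mM first, escalating to 60, 90 and 120 mM if no gel; pH set to 6.5–8.5 by stepwise 1 N NaOH, each step sonicated briefly.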

[2] = Transmission electron microscope (negative staining) of peptide assemblies; conditions: TEM, negative staining with uranyl acetate, 120 kV
Description: We used the negative staining technique to observe the morphologies formed by peptides. A micropipette was used to load 10 μL of sample solution to a carbon-coated copper grid, and we used a piece of filter paper to remove the excess solution. After rinsing the grid with the deionized water, we used uranyl acetate to stain the sample for 1 minute and then rinsed the grid with deionized water again.

[3] = 30 mM peptide in ultrapure water, pH adjusted to 6.5-8.5 with 1 N NaOH, concentration raised 30/60/90/120 mM until gelation
[4] = 90 mM peptide in ultrapure water, pH 6.5-8.5 (1 N NaOH), no gel at lower concentrations
[5] = 120 mM peptide (highest tested) in ultrapure water, pH 6.5-8.5 (1 N NaOH), precipitate, sol, suspension = no gel
[6] = 60 mM peptide in ultrapure water, pH 6.5-8.5 (1 N NaOH), no gel at 30 mM

## CC[C@H](C)[C@H](N)C(=O)N[C@@H](CC(C)C)C(=O)N[C@H](C(=O)N[C@H](C(=O)O)C(C)C)C(C)C [ILVV] (H-ILVV-OH)
[1]; [3]
  State: gel
[1]
  Concentration: 30000 µM
[1]; peptide concentration 30 mM
  GELATION: 1
[2]; line of the table gives 30 mM
  Morphology: aggregates

## CC[C@H](C)[C@H](NC(=O)[C@@H](NC(=O)[C@@H](NC(=O)[C@@H]1CCCN1)C(C)C)[C@@H](C)CC)C(=O)O [PVII] (H-PVII-OH)
[1]; [4]
  State: gel
[1]
  Concentration: 90000 µM
[1]; peptide concentration 90 mM
  GELATION: 1
[2]; line of the table gives 90 mM
  Morphology: fibre

## CC(C)[C@H](NC(=O)[C@@H](N)CC(N)=O)C(=O)N[C@@H](Cc1ccccc1)C(=O)N[C@@H](Cc1c[nH]cn1)C(=O)O [NVFH] (H-NVFH-OH)
[1]; [5]
  State: suspension
[1]
  Concentration: 120000 µM
[1]; peptide concentration 120 mM
  GELATION: 0
[2]; line of the table gives 120 mM
  Morphology: aggregates

## CC(C)C[C@H](NC(=O)[C@H](C)NC(=O)[C@@H](N)CC(=O)O)C(=O)N[C@H](C(=O)O)C(C)C [DALV] (H-DALV-OH)
[1]; [5]
  State: suspension
[1]
  Concentration: 120000 µM
[1]; peptide concentration 120 mM
  GELATION: 0
[2]; line of the table gives 120 mM
  Morphology: aggregates

## C[C@H](N)C(=O)N[C@@H](C)C(=O)N[C@@H](C)C(=O)N[C@@H](C)C(=O)O [AAAA] (H-AAAA-OH)
[1]; [5]
  State: sol
[1]
  Concentration: 120000 µM
[1]; peptide concentration 120 mM
  GELATION: 0
[2]; line of the table gives 120 mM
  Morphology: blank

## N[C@@H](Cc1c[nH]c2ccccc12)C(=O)N[C@@H](Cc1ccccc1)C(=O)N[C@@H](Cc1c[nH]cn1)C(=O)N1CCC[C@H]1C(=O)O [WFHP] (H-WFHP-OH)
[1]; [5]
  State: sol
[1]
  Concentration: 120000 µM
[1]; peptide concentration 120 mM
  GELATION: 0
[2]; line of the table gives 120 mM
  Morphology: aggregates

## CC(C)C[C@H](NC(=O)[C@H](CO)NC(=O)[C@H](CC(C)C)NC(=O)[C@@H](N)CC(C)C)C(=O)O [LLSL] (H-LLSL-OH)
[1]; [6]
  State: gel
[1]
  Concentration: 60000 µM
[1]; peptide concentration 60 mM
  GELATION: 1
[2]; line of the table gives 60 mM
  Morphology: sheet

## O=C(O)[C@H](Cc1ccc(O)cc1)NC(=O)[C@H](Cc1ccc(O)cc1)NC(=O)[C@H](Cc1c[nH]c2ccccc12)NC(=O)[C@@H]1CCCN1 [PWYY] (H-PWYY-OH)
[1]; [6]
  State: gel
[1]
  Concentration: 60000 µM
[1]; peptide concentration 60 mM
  GELATION: 1
[2]; line of the table gives 60 mM
  Morphology: aggregates

## CC(C)[C@H](N)C(=O)N[C@@H](CO)C(=O)N[C@@H](Cc1c[nH]c2ccccc12)C(=O)N[C@@H](Cc1ccc(O)cc1)C(=O)O [VSWY] (H-VSWY-OH)
[1]; [5]
  State: precipitate
[1]
  Concentration: 120000 µM
[1]; peptide concentration 120 mM
  GELATION: 0
[2]; line of the table gives 120 mM
  Morphology: particle

## CC[C@H](C)[C@H](NC(=O)[C@H](Cc1c[nH]c2ccccc12)NC(=O)[C@@H](N)C(C)C)C(=O)N[C@H](C(=O)O)[C@@H](C)O [VWIT] (H-VWIT-OH)
[1]; [5]
  State: precipitate
[1]
  Concentration: 120000 µM
[1]; peptide concentration 120 mM
  GELATION: 0
[2]; line of the table gives 120 mM
  Morphology: aggregates

## N[C@@H](CC(=O)O)C(=O)N[C@@H](CC(=O)O)C(=O)N[C@@H](CC(=O)O)C(=O)N[C@@H](CC(=O)O)C(=O)O [DDDD] (H-DDDD-OH)
[1]; [5]
  State: sol
[1]
  Concentration: 120000 µM
[1]; peptide concentration 120 mM
  GELATION: 0
[2]; line of the table gives 120 mM
  Morphology: sphere

## CC(C)C[C@H](NC(=O)[C@@H](N)CC(C)C)C(=O)N[C@@H](Cc1c[nH]cn1)C(=O)N[C@@H](Cc1ccccc1)C(=O)O [LLHF] (H-LLHF-OH)
[1]; [3]
  State: gel
[1]
  Concentration: 30000 µM
[1]; peptide concentration 30 mM
  GELATION: 1
[2]; line of the table gives 30 mM
  Morphology: hybrid(sphere+fibre)

## CC(C)C[C@H](NC(=O)[C@@H](NC(=O)[C@H](CC(C)C)NC(=O)[C@@H](N)C(C)C)C(C)C)C(=O)O [VLVL] (H-VLVL-OH)
[1]; [5]
  State: gel
[1]
  Concentration: 120000 µM
[1]; peptide concentration 120 mM
  GELATION: 1
[2]; line of the table gives 120 mM
  Morphology: sheet

## CC[C@H](C)[C@H](NC(=O)[C@@H](NC(=O)[C@H](Cc1c[nH]cn1)NC(=O)[C@@H](N)CCC(N)=O)[C@@H](C)CC)C(=O)O [QHII] (H-QHII-OH)
[1]; [5]
  State: sol
[1]
  Concentration: 120000 µM
[1]; peptide concentration 120 mM
  GELATION: 0
[2]; line of the table gives 120 mM
  Morphology: aggregates

## CSCC[C@H](NC(=O)[C@@H](N)CCSC)C(=O)N[C@@H](Cc1ccc(O)cc1)C(=O)N[C@@H](Cc1ccc(O)cc1)C(=O)O [MMYY] (H-MMYY-OH)
[1]; [5]
  State: suspension
[1]
  Concentration: 120000 µM
[1]; peptide concentration 120 mM
  GELATION: 0
[2]; line of the table gives 120 mM
  Morphology: particle

## CSCC[C@H](NC(=O)[C@H](CC(N)=O)NC(=O)[C@@H](NC(=O)CN)C(C)C)C(=O)O [GVNM] (H-GVNM-OH)
[1]; [5]
  State: suspension
[1]
  Concentration: 120000 µM
[1]; peptide concentration 120 mM
  GELATION: 0
[2]; line of the table gives 120 mM
  Morphology: sphere

## CC[C@H](C)[C@H](NC(=O)[C@H](CC(C)C)NC(=O)[C@@H](NC(=O)[C@@H](N)CC(C)C)C(C)C)C(=O)O [LVLI] (H-LVLI-OH)
[1]; [3]
  State: gel
[1]
  Concentration: 30000 µM
[1]; peptide concentration 30 mM
  GELATION: 1
[2]; line of the table gives 30 mM
  Morphology: sheet

## CC(C)C[C@H](NC(=O)[C@H](CC(C)C)NC(=O)[C@@H](N)CCCCN)C(=O)N[C@@H](Cc1ccccc1)C(=O)O [KLLF]
[1]; [3]
  State: gel
[1]
  Concentration: 30000 µM
[1]; peptide concentration 30 mM
  GELATION: 1
[2]; line of the table gives 30 mM
  Morphology: particle

## CC(C)C[C@H](N)C(=O)N[C@@H](CO)C(=O)N[C@@H](Cc1ccccc1)C(=O)N[C@@H](Cc1c[nH]c2ccccc12)C(=O)O [LSFW] (H-LSFW-OH)
[1]; [6]
  State: gel
[1]
  Concentration: 60000 µM
[1]; peptide concentration 60 mM
  GELATION: 1
[2]; line of the table gives 60 mM
  Morphology: hybrid(sphere+fibre)

## CC(C)C[C@H](N)C(=O)N[C@H](C(=O)N[C@@H](Cc1c[nH]c2ccccc12)C(=O)N[C@@H](Cc1ccccc1)C(=O)O)C(C)C [LVWF] (H-LVWF-OH)
[1]; [4]
  State: gel
[1]
  Concentration: 90000 µM
[1]; peptide concentration 90 mM
  GELATION: 1
[2]; line of the table gives 90 mM
  Morphology: needle

## CC(C)C[C@H](NC(=O)[C@@H](NC(=O)[C@@H](N)CC(C)C)[C@@H](C)O)C(=O)N[C@@H](Cc1ccccc1)C(=O)O [LTLF] (H-LTLF-OH)
[1]; [3]
  State: gel
[1]
  Concentration: 30000 µM
[1]; peptide concentration 30 mM
  GELATION: 1
[2]; line of the table gives 30 mM
  Morphology: sheet

## O=C(O)[C@H](Cc1c[nH]c2ccccc12)NC(=O)[C@H](Cc1ccc(O)cc1)NC(=O)[C@H](Cc1c[nH]c2ccccc12)NC(=O)[C@@H]1CCCN1 [PWYW] (H-PWYW-OH)
[1]; [5]
  State: gel
[1]
  Concentration: 120000 µM
[1]; peptide concentration 120 mM
  GELATION: 1
[2]; line of the table gives 120 mM
  Morphology: aggregates

## NCCCC[C@H](NC(=O)[C@H](CCCCN)NC(=O)[C@H](CCCCN)NC(=O)[C@@H](N)CCCCN)C(=O)O [KKKK] (H-KKKK-OH)
[1]; [5]
  State: sol
[1]
  Concentration: 120000 µM
[1]; peptide concentration 120 mM
  GELATION: 0
[2]; line of the table gives 120 mM
  Morphology: blank

## CC[C@H](C)[C@H](N)C(=O)N[C@H](C(=O)N[C@H](C(=O)N[C@H](C(=O)O)[C@@H](C)CC)[C@@H](C)CC)C(C)C [IVII] (H-IVII-OH)
[1]; [3]
  State: gel
[1]
  Concentration: 30000 µM
[1]; peptide concentration 30 mM
  GELATION: 1
[2]; line of the table gives 30 mM
  Morphology: sheet

## CC(C)[C@H](N)C(=O)N[C@@H](Cc1ccccc1)C(=O)N[C@@H](Cc1c[nH]cn1)C(=O)N[C@@H](CC(N)=O)C(=O)O [VFHN] (H-VFHN-OH)
[1]; [5]
  State: suspension
[1]
  Concentration: 120000 µM
[1]; peptide concentration 120 mM
  GELATION: 0
[2]; line of the table gives 120 mM
  Morphology: aggregates

## CC[C@H](C)[C@H](N)C(=O)N[C@@H](CCC(N)=O)C(=O)N[C@H](C(=O)N[C@H](C(=O)O)[C@@H](C)CC)[C@@H](C)CC [IQII] (H-IQII-OH)
[1]; [6]
  State: gel
[1]
  Concentration: 60000 µM
[1]; peptide concentration 60 mM
  GELATION: 1
[2]; line of the table gives 60 mM
  Morphology: hybrid(sphere+fibre)

## CC(C)[C@H](NC(=O)[C@@H](N)CC(=O)O)C(=O)N[C@@H](Cc1ccccc1)C(=O)N[C@@H](Cc1c[nH]c2ccccc12)C(=O)O [DVFW] (H-DVFW-OH)
[1]; [3]
  State: gel
[1]
  Concentration: 30000 µM
[1]; peptide concentration 30 mM
  GELATION: 1
[2]; line of the table gives 30 mM
  Morphology: fibre

## N[C@@H](Cc1ccccc1)C(=O)N[C@@H](CS)C(=O)N[C@@H](Cc1c[nH]c2ccccc12)C(=O)N[C@@H](Cc1c[nH]c2ccccc12)C(=O)O [FCWW] (H-FCWW-OH)
[1]; [5]
  State: gel
[1]
  Concentration: 120000 µM
[1]; peptide concentration 120 mM
  GELATION: 1
[2]; line of the table gives 120 mM
  Morphology: aggregates

## C[C@H](NC(=O)[C@@H](N)Cc1ccccc1)C(=O)N[C@@H](Cc1ccccc1)C(=O)N1CCC[C@H]1C(=O)O [FAFP] (H-FAFP-OH)
[1]; [5]
  State: suspension
[1]
  Concentration: 120000 µM
[1]; peptide concentration 120 mM
  GELATION: 0
[2]; line of the table gives 120 mM
  Morphology: particle

## CC[C@H](C)[C@H](NC(=O)[C@@H](NC(=O)[C@@H](NC(=O)[C@@H](N)CC(C)C)C(C)C)[C@@H](C)CC)C(=O)O [LVII] (H-LVII-OH)
[1]; [3]
  State: gel
[1]
  Concentration: 30000 µM
[1]; peptide concentration 30 mM
  GELATION: 1
[2]; line of the table gives 30 mM
  Morphology: sheet

## CSCC[C@H](NC(=O)[C@@H](N)CCSC)C(=O)N[C@@H](CC(C)C)C(=O)N[C@@H](CC(C)C)C(=O)O [MMLL] (H-MMLL-OH)
[1]; [4]
  State: gel
[1]
  Concentration: 90000 µM
[1]; peptide concentration 90 mM
  GELATION: 1
[2]; line of the table gives 90 mM
  Morphology: sheet

## CC[C@H](C)[C@H](NC(=O)[C@H](Cc1ccc(O)cc1)NC(=O)[C@@H]1CCCN1C(=O)[C@@H](N)Cc1ccc(O)cc1)C(=O)O [YPYI] (H-YPYI-OH)
[1]; [5]
  State: sol
[1]
  Concentration: 120000 µM
[1]; peptide concentration 120 mM
  GELATION: 0
[2]; line of the table gives 120 mM
  Morphology: aggregates
